≈ marks a conversion by molar mass, not a printed value. Like-named read-outs stand apart in the source and are kept apart here.
Key:
[1] = Liver S9 fraction stability, monkey; assay type: in vitro ADME, cynomolgus monkey; conditions: monkey liver S9, 1.0 mg/ml S9 protein, 2 μM, 37° C.
Experimental: (§1) Liver S9 fraction stability determination of the test compounds in dog, cynomolgus monkey and human is performed using HPLC-MS. Test compound (2 μM, 0.1% DMSO, 1% Methanol final concentration) was assessed for stability in a 50 μl phosphate buffer containing 1.0 mg/ml S9 protein from each of the three species and 5 mM D-saccharic acid-1, 4-lactone. Samples were incubated at 37° C. for 60 minutes and the % compound remaining was assessed.

[2] = Plasma stability assay, dog plasma; assay type: in vitro ADME; conditions: 2 μM, 37° C.
Experimental: (§2) Plasma stability determination of the test compounds in rat, dog, cynomolgus monkey and human plasma is performed using HPLC-MS. For rat, incubations are carried out in 96-well polypropylene plates in 5 aliquots of 70 μL each (one for each time point). […] Five time points are analyzed (0, 15, 120, 480 and 1440 min). […] All incubations are performed in duplicates. The samples are analyzed by HPLC-MS. The percentage of parent compound remaining after incubation in plasma is determined.

[3] = Plasma stability assay, human plasma; assay type: in vitro ADME; conditions: 2 μM, 37° C.
Experimental: as §2

[4] = Liver S9 fraction stability, dog; assay type: in vitro ADME; conditions: dog liver S9, 1.0 mg/ml S9 protein, 2 μM, 37° C.
Experimental: as §1

[5] = Liver S9 fraction stability, human; assay type: in vitro ADME; conditions: human liver S9, 1.0 mg/ml S9 protein, 2 μM, 37° C.
Experimental: as §1

[6] = Plasma stability assay, monkey plasma; assay type: in vitro ADME, cynomolgus monkey; conditions: 2 μM, 37° C.
Experimental: as §2

physchem = conditions: 40 °C, thermodynamic from solid, heating temp. 60 °C, obs. temp. 40 °C
[7] = Plasma stability assay, rat plasma; assay type: in vitro ADME; conditions: 10 μM, 37° C.
Procedure, shortened: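 Read-out: percent parent compound remaining, by HPLC-MS, duplicate incubations. Dog/monkey/human: 2 μM test compound, 1% solvent final, 37 °C, time points 0, 10, 30, 60, 120 min. Rat: time points 0, 15, 120, 480, 1440 min.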

[8] = heating temp. 40 °C, obs. temp. 40 °C
[9] = heating temp. 60 °C, obs. temp. 25 °C

SMILES	% remaining at 60 minutes [1]	% remaining at time point ([2]; 0 min)	% remaining at time point ([2]; 15 min (head))	% remaining at time point ([2]; 120 min (head))	% remaining at time point ([2]; 480 min (head))	% remaining at time point ([2]; 1440 min (head))	% remaining at time point ([3]; 0 min)	% remaining at time point ([3]; 15 min (head))	% remaining at time point ([3]; 120 min (head))	% remaining at time point ([3]; 480 min (head))	% remaining at time point ([3]; 1440 min (head))	% remaining at 60 minutes [4]	% remaining at 60 minutes [5]	% remaining at time point ([6]; 0 min)	% remaining at time point ([6]; 15 min (head))	% remaining at time point ([6]; 120 min (head))	% remaining at time point ([6]; 480 min (head))	% remaining at time point ([6]; 1440 min (head))	further results
CCCCCCCCCCCCCCCC(=O)OC1CCCn2c1nc(C)c(CCN1CCC(c3noc4cc(F)ccc34)CC1)c2=O (stereo not drawn) [Paliperidone palmitate, reference compound]	57.4%	100%	91.2%	88.4%	95.9%	93.1%	100%	103.7%	97.6%	109.1%	104.1%	56.4%	47.8%	100%	92%	89.5%	98.4%	92.5%	–
C=C1CC[C@@]2(O)[C@H]3Cc4ccc(O)c5c4[C@@]2(CCN3CC2CC2)[C@H]1O5 [nalmefene, 17-cyclopropylmethyl-4,5α-epoxy-6-methylenemorphinan-3,14-diol]	–	–	–	–	–	–	–	–	–	–	–	–	–	–	–	–	–	–	solubility (physchem; oil or lipid, Approximate Solubility (mg/mL) in Excipient: Cottonseed oil, Cottonseed oil): < 25 mg/mL; solubility (physchem; oil or lipid, Approximate Solubility (mg/mL) in Excipient: Sesame oil, Sesame oil): < 25.5 mg/mL; solubility (physchem; organic solvent or mixture, Approximate Solubility (mg/mL) in Excipient: Ethanol, Ethanol): 102 to 137 mg/mL (≈ 300 to 404 mM)
C=C1CC[C@@]2(O)C3Cc4ccc(OC(=O)CCCCCCC/C=C/CCCCCCCC)c5c4[C@@]2(CCN3CC2CC2)[C@H]1O5 [Compound 15, (4aS,7aS,12bS)-3-(cyclopropylmethyl)-4a-hydroxy-7-methylene-2,3,4,4a,5,6,7,7a-octahydro-1H-4,12-methanobenzofuro[3,2-e]isoquinolin-9-yl (E)-octadec-9-enoate]	76.7%	100%	82.5%	80.6%	90.1%	86.1%	100%	83.3%	82.5%	107.1%	109.0%	80.9%	59.8%	100%	74.5%	72.7%	80.6%	76.5%	% remaining at time point ([7]; 0 min): 100%; % remaining at time point ([7]; 15 min): 72%; % remaining at time point ([7]; 120 min): 69.3%; % remaining at time point ([7]; 480 min): 52%; % remaining at time point ([7]; 1440 min): 35%; Approximate Solubility (mg/mL) in Excipient: Cottonseed oil [8]: <51 mg/mL; Approximate Solubility (mg/mL) in Excipient: Cottonseed oil [9]: >402.6 mg/mL; Approximate Solubility (mg/mL) in Excipient: Cottonseed oil (heating temp. 60 °C, obs. temp. 40 °C): >401 mg/mL; Approximate Solubility (mg/mL) in Excipient: Ethanol (Ethanol, heating temp. 40 °C, obs. temp. 40 °C): <20 mg/mL; Approximate Solubility (mg/mL) in Excipient: Sesame oil [8]: <52 mg/mL; Approximate Solubility (mg/mL) in Excipient: Sesame oil [9]: >396.5 mg/mL; Equilibrium solubility (mg/mL) Water (Water, heating temp. 40 °C, obs. temp. 40 °C): <0.0002 mg/mL
